Measured values taken from paper PMC9692677, “Virtual Cocrystal Screening of Adefovir Dipivoxyl: Identification of New Solid Forms with Improved Dissolution and Permeation Profiles” (Pharmaceutics, 2022).
≈ marks a conversion by molar mass, not a printed value. Where “and” joins values, the source holds several entries; their conditions need not be identical. Identical values can stand only once. Like-named read-outs stand apart in the source and are kept apart here.

Assays:
Assay type in all cases: physicochemical
pKa determination = assay: pKa determination
[1] = Intrinsic dissolution at individual pH sectors (GLpKa, 3 mm disks, 30 min); settings: for solubility at 30 min: acetate–phosphate buffer with KCl; for Dissolution Rate: fit of Noyes–Whitney equation; for % Dissolved at t = 30 min: single-pH sector
[2] = XRPD analysis of the tablet surface after the single-pH dissolution experiments
Description: X-ray powder diffraction (XRPD) patterns of new cocrystals of AD were measured on a PANalytical (Malvern, UK) X’Pert PRO MPD (transmission configuration with Cu Kα radiation, λ = 1.54187 Å) with a focalizing elliptic mirror and a PIXcel detector and a maximum detector’s active length of 3.347°. Transmission geometry configuration included a convergent beam with a focalizing mirror, a flat sample sandwiched between low absorbing films measuring from 1 to 40° in 2θ, a step size of 0.026° and a measuring time of 8 to 30 min at room temperature (25 °C). Capillary geometry has been used with AD–Resorcinol (Form I) placed in a glass capillary (Lindemman) 0.5 mm in diameter measuring from 2 to 70° in 2θ, with a step size of 0.013° and a total measuring time of 18 h. The powder diffractograms were indexed and the lattice parameters were refined by means of Le Bail fits by means of Dicvol04 [35], and the space group was determined from the systematic absences.
The first set of studies was performed at different pH sectors (1.5, 4.0, 5.5 and 7.4) which are typically encountered in the gastrointestinal tract (GIT), and individual dissolution rates were determined at each pH sector. To perform these experiments, disks of 3mm diameter containing 6–10 mg of the drug or cocrystal were prepared by applying a constant pressure of 0.1 ton for 2 min with a manual hydraulic tablet press (Applied Measurements Specac Ltd, Orpington UK). The tablet was placed in a holder, and only one side of the tablet was exposed to the dissolution medium. The total exposed surface area was 0.07 cm^2. A total of 1.5 mL of 0.125 M acetate–phosphate buffer at pH 1.6 was introduced into the vial without wetting the tablet surface. The instrument then automatically added 13.5 mL of 0.15 M KCl solution and adjusted the pH to the required value (see Table S2 for exact experimental details). Spectra collection started immediately after. Spectra were recorded every 30 s for 30 min. The medium was stirred at a constant rate. The solid state of the remaining disks was analyzed using XRPD.
The XRPD analysis of the tablet surface after the dissolution experiments confirms that there is some transformation of the solid form. The highest transformation occurs for AD tablets, where 20% of the initial AD (Form I) is transformed into the dihydrate. This transformation is reproducible, as deduced by the low error bars in the dissolution profiles. In the case of cocrystals, they mainly remain in its original solid form; the 5–10% of the free AD (Form I) observed in the analysis of the tablets could be the result of AD deposition during the experiments since the saturation concentration is reached very quickly, rather than a solid phase transformation in the surface of the tablet.

[3] = Dissolution in a four-pH sector sequence (pH 1.5 to 7.4, 30 min at each pH, GLpKa)
Description: A second set of experiments was performed with the same instrument. However, determinations were made in a full sequence of pHs (from 1.5 to 7.4) maintained for 30 min at each individual pH. To change the pH, KOH was added to the medium (Table S3).
Compared to the single-pH experiments, the four-pH sectors determination provides dynamic information of the dissolution behavior of the compounds along the GIT. Now, the dissolution test starts at pH 1.5, and dissolution is monitored for 30 min. Then, the pH is raised to 4.0, 5.5, and finally, 7.4, monitoring dissolution for 30 min at each pH.

[4] = Biphasic four-pH sector dissolution with 1-decanol lipid layer (Pion inForm); settings: for Transfer of AD towards the organic layer (1-decanol): pH 4.0 sector
Description: The third set of measurements were performed using a Pion inForm automated titrator system from Pion (Pion-Inc., Billerica, MA, USA, www.pion-inc.com) with an incorporated UV-Vis spectrophotometer to acquire the spectrophotometric data. The optical system also consisted of a photodiode array detector with a deuterium lamp and included two fiber optic dip probes. The titrator module included a temperature controller (a Peltier device with in-situ thermocouple), pH electrode, an overhead stirrer and motorized dispensers for the automatic delivery of assay titrants and reagents via capillaries. The instrumentation was operated by inForm Control and Assay Designer software (version 1.6.0.0). The Pion inForm system was used for the biphasic dissolution studies. Samples were prepared as described previously, and studies were performed consecutively through the four different pH sectors, with the addition of a lipid layer (1-decanol) in the second sector to mimic the absorption in the GIT. The dissolution media consisted of 40 mL of aqueous solution, which was added automatically to an 80 mL dissolution vessel and brought to 25 °C (±0.1 °C). Once the media were adjusted to the starting pH and temperature, each sample was added automatically, and data collection was started from the point of sample introduction. The lipid layer (30 mL) was added in the second pH sector after the pH was adjusted to 4.0 (see Table S4 for exact experimental details). The two UV optic fiber probes each with a 10mm path length, were used on the inForm platform for quantitating the drug in the aqueous phase and in the lipid layer. Stirring of the solution was continuous at a rate of 100 rpm through the four sectors. Spectral and pH data were collected with a frequency of 30 s over a period of 2 h.
Contrary to GLpKa, which has a fixed probe with a 10 mm path length that cannot be exchangeable with different path length size tips, Pion inForm is provided with two UV probes, both with a 10 mm path length: a fixed path-length and an exchangeable path-length. These probes were used for the aqueous and the lipid media, respectively. In this way, the UV data collected for the three cocrystals could be quantified using the MECs of orcinol, resorcinol and hydroquinone. Moreover, in the inForm system a greater volume of solution is used (40 mL instead of 15 mL of water used for the GLpKa). Therefore, the signal was not saturated, and the UV spectra for the coformers and the adefovir could be distinguished between them.
In order to study dissolution under conditions that mimic in vivo conditions more closely than other systems, the final set of experiments was carried out in a biphasic dissolution system. The test consists again in a four-pH sectors experiment, but in this case, 1-decanol was added in the second sector (pH 4.0) to simulate the contact with lipidic membranes. Then, the API concentration was monitored simultaneously in both phases through two different optic fiber probes.

[5] = pH 1.5, SD in parenthesis, n = 3
[6] = pH 4.0, SD in parenthesis, n = 3
[7] = pH 5.5, SD in parenthesis, n = 3
[8] = pH 7.4, SD in parenthesis, n = 3

SMILES	Dissolution Rate [1, 5]	% Dissolved at t = 30 min [1, 5]	Dissolution Rate [1, 6]	% Dissolved at t = 30 min [1, 6]	Dissolution Rate [1, 7]	% Dissolved at t = 30 min [1, 7]	Dissolution Rate [1, 8]	% Dissolved at t = 30 min [1, 8]	Final Solid Form on tablet surface after dissolution ([2]; pH 1.5)	Final Solid Form on tablet surface after dissolution ([2]; pH 4.0)	Final Solid Form on tablet surface after dissolution ([2]; pH 5.5)	Final Solid Form on tablet surface after dissolution ([2]; pH 7.4)	Transfer of AD towards the organic layer (1-decanol) [4]	further results
CC(C)(C)C(=O)OCOP(=O)(COCCn1cnc2c(N)ncnc21)OCOC(=O)C(C)(C)C [AD, 9-{2-[Bis(pivaloyloxymethoxy)phosphinylmethoxy]ethyl}adenine]	315 (4) nmols/min	29.0 (1.0) %	35 (4) nmols/min	5.7% and 5.7 (0.4) %	21 (4) nmols/min	3.8% and 3.8 (0.6) %	17 (2) nmols/min	3.3% and 3.3 (0.4) %	Form I + AD–dihydrate (80%:20%)	Form I + AD–dihydrate (80%:20%)	Form I + AD–dihydrate (80%:20%)	Form I + AD–dihydrate (80%:20%)	even slower	pKa (pKa determination): 3.78 ± 0.05; solubility at 30 min ([1]; aqueous buffer, thermodynamic from solid, pH 1.5, SD in parenthesis, n = 3, read-out: AD Solubility): 325 µM (≈ 163 µg/mL); solubility at 30 min ([1]; aqueous buffer, thermodynamic from solid, pH 4.0, SD in parenthesis, n = 3, read-out: AD Solubility, extrapolated (from Equation (1))): 139 µM (≈ 69.7 µg/mL); solubility at 30 min ([1]; aqueous buffer, thermodynamic from solid, pH 5.5, SD in parenthesis, n = 3, read-out: AD Solubility, extrapolated (from Equation (1))): 128 µM (≈ 64.2 µg/mL); solubility at 30 min ([1]; aqueous buffer, thermodynamic from solid, pH 7.4, SD in parenthesis, n = 3, read-out: AD Solubility, extrapolated (from Equation (1))): 123 µM (≈ 61.7 µg/mL); solubility at 30 min ([1]; pH 1.5, read-out: Solubility for AD indicated by the plateaus of the cocrystal profiles): ~300 µM (≈ 150 µg/mL); Saturation concentration of AD ([1]; rest of pH values (4.0, 5.5, 7.4), particularly pH 5.5 and 7.4): around 100 μM; Share of the initial solid form transformed / other form found on tablet after dissolution ([2]; XRPD of tablet surface): 20%; % of API dissolved, four-pH sector test ([3]; pH 1.5 sector): 30%; % of AD in solution, four-pH sector test ([3]; pH 4.0 sector): 25%; % of AD in solution, four-pH sector test ([3]; pH 5.5 sector): 20%; % of AD in solution, four-pH sector test ([3]; pH 7.4 sector): 20%
CC(C)(C)C(=O)OCOP(=O)(COCCn1cnc2c(N)ncnc21)OCOC(=O)C(C)(C)C.Cc1cc(O)cc(O)c1 [AD–Orc cocrystal]	626 (40) nmols/min	39.2 (1.1) %	147 (47) nmols/min	14.7 (1.6) %	17 (1) nmols/min	10.6 (2.5) %	17 (3) nmols/min	13.1 (3.6) %	Cocrystal + AD–dihydrate (90%:10%)	Cocrystal + AD–dihydrate (90%:10%)	Cocrystal + AD–dihydrate (90%:10%)	Cocrystal + AD–dihydrate (90%:10%)	rapid transfer of AD towards the organic layer	
CC(C)(C)C(=O)OCOP(=O)(COCCn1cnc2c(N)ncnc21)OCOC(=O)C(C)(C)C.Oc1cccc(O)c1 [AD–Res cocrystal (Form I)]	1015 (6) nmols/min	39.3 (1.3) %	63 (2) nmols/min	16.1 (2.0) %	19 (1) nmols/min	12.2 (2.0) %	15 (1) nmols/min	10.9 (2.7) %	Cocrystal (Form I) + AD–dihydrate (95%:5%)	Cocrystal (Form I) + AD–dihydrate (95%:5%)	Cocrystal (Form I) + AD–dihydrate (95%:5%)	Cocrystal (Form I) + AD–dihydrate (95%:5%)	rapid transfer of AD towards the organic layer	
CC(C)(C)C(=O)OCOP(=O)(COCCn1cnc2c(N)ncnc21)OCOC(=O)C(C)(C)C.Oc1ccc(O)cc1 [AD–hydroquinone cocrystal]													slightly slower	Slope of dissolution profile in the first pH sector ([4]; pH 1.5, aqueous phase): inferior slope compared to the cocrystals with resorcinol and orcinol
